# Data taken from patent publication US12410163B2, “Compounds as GLP-IR agonists” (Terns Pharmaceuticals, Inc., priority 2022, dated 2025).
# Target: T1, human GLP-1R receptor (Homo sapiens, UniProt P43220)
# T1 construct: expressed in transfected cells
# Assay: GLP-1R low expression cell assay (cAMP TR-FRET, CHO-K1_hGLP-1Rlow_clone10)
# Format: cell-based
# Conditions: CHO-K1_hGLP-1Rlow_clone10 cells, percent activation relative to control GLP-1 peptide
# Outline: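 CHO-K1 cells stably expressing low surface levels of human GLP-1R were exposed to 10-point, 3-fold compound dilutions for 30 min at 25 °C, then cAMP was read by TR-FRET (Eu-cAMP/ULight-anti-cAMP, 15 min). EC50 came from Hill fits of percent activation relative to a GLP-1 control agonist, duplicate wells.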
# T1 sequence (P43220 24-463): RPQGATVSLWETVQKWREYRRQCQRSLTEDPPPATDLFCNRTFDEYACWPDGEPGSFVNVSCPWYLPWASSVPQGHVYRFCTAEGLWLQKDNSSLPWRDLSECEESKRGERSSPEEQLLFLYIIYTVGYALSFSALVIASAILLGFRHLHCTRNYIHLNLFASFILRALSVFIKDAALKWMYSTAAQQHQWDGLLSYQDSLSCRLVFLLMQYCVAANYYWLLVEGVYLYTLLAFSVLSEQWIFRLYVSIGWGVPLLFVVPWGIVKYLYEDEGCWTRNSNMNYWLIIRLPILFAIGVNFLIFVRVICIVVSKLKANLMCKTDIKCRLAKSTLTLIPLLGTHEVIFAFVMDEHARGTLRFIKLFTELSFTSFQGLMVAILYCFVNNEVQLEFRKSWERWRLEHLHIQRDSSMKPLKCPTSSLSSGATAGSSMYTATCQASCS
row,Compound,EC50
1,"N#Cc1ccc(COc2cccc(N3CCN(Cc4nc5ccc(C(=O)O)cc5n4Cc4cncs4)[C@@H]4C[C@@H]43)n2)c(F)c1 (single isomer, unassigned) [Compound 1, 2-((5-(6-((4-cyano-2-fluorobenzyl)oxy)pyridin-2-yl)-2,5-diazabicyclo[4.1.0]heptan-2-yl)methyl)-1-(thiazol-5-ylmethyl)-1H-benzo[d]imidazole-6-carboxylic Acid]",< 5 nM
2,"N#Cc1ccc(COc2cccc(N3CCN(Cc4nc5ccc(C(=O)O)cc5n4Cc4cncs4)[C@H]4C[C@H]43)n2)c(F)c1 (single isomer, unassigned) [Compound 2, 2-((5-(6-((4-Cyano-2-fluorobenzyl)oxy)pyridin-2-yl)-2,5-diazabicyclo[4.1.0]heptan-2-yl)methyl)-1-(thiazol-5-ylmethyl)-1H-benzo[d]imidazole-6-carboxylic Acid]",50 to 100 nM
3,"N#Cc1ccc(COc2cccc(N3CCN(Cc4nc5ccc(C(=O)O)cc5n4C[C@@H]4CCO4)[C@@H]4C[C@@H]43)n2)c(F)c1 (single isomer, unassigned) [Compound 43]",< 5 nM
4,CC1(c2ccc(C#N)cc2F)Oc2cccc(C3CCN(Cc4nc5ccc(C(=O)O)cc5n4Cc4cncs4)CC3)c2O1 (centres unmarked) [Compound 18],< 5 nM
5,"N#Cc1ccc(COc2ccnc(N3CCN(Cc4nc5ccc(C(=O)O)cc5n4Cc4cncs4)[C@@H]4C[C@@H]43)n2)c(F)c1 [Compound 20, 2-((5-(4-((4-Cyano-2-fluorobenzyl)oxy)pyrimidin-2-yl)-2,5-diazabicyclo[4.1.0]heptan-2-yl)methyl)-1-(thiazol-5-ylmethyl)-1H-benzo[d]imidazole-6-carboxylic Acid]",5 to 50 nM
6,"CC1(c2ccc(C#N)cc2F)Oc2cccc(N3CCN(Cc4nc5ccc(C(=O)O)cc5n4CC4(C#N)CC4)C4CC43)c2O1 (centres unmarked) [Compound 40, 2-((5-(2-(4-Cyano-2-fluorophenyl)-2-methylbenzo[d][1,3]dioxol-4-yl)-2,5-diazabicyclo[4.1.0]heptan-2-yl)methyl)-1-((1-cyanocyclopropyl)methyl)-1H-benzo[d]imidazole-6-carboxylic Acid]",< 5 nM
7,"CCn1nncc1Cn1c(CN2CCN(c3cccc(OCc4ccc(C#N)cc4F)n3)[C@H]3C[C@H]32)nc2ccc(C(=O)O)cc21 [Compound 45, 2-((5-(6-((4-Cyano-2-fluorobenzyl)oxy)pyridin-2-yl)-2,5-diazabicyclo[4.1.0]heptan-2-yl)methyl)-1-((1-ethyl-1H-1,2,3-triazol-5-yl)methyl)-1H-benzo[d]imidazole-6-carboxylic Acid]",< 5 nM

# Continued, values first:
row,EC50,Compound
1,< 5 nM,"N#Cc1ccc(COc2cccc([C@H]3CCN(Cc4nc5ccc(C(=O)O)cc5n4Cc4cncs4)[C@@H]4C[C@H]34)n2)c(F)c1 (single isomer, unassigned) [Compound 4, 2-((5-(6-((4-Cyano-2-fluorobenzyl)oxy)pyridin-2-yl)-2-azabicyclo[4.1.0]heptan-2-yl)methyl)-1-(thiazol-5-ylmethyl)-1H-benzo[d]imidazole-6-carboxylic Acid]"
2,5 to 50 nM,"N#Cc1ccc(COc2cccc([C@@H]3CCN(Cc4nc5ccc(C(=O)O)cc5n4Cc4cncs4)[C@@H]4C[C@@H]43)n2)c(F)c1 (single isomer, unassigned) [Compound 5, 2-((5-(6-((4-Cyano-2-fluorobenzyl)oxy)pyridin-2-yl)-2-azabicyclo[4.1.0]heptan-2-yl)methyl)-1-(thiazol-5-ylmethyl)-1H-benzo[d]imidazole-6-carboxylic Acid]"
3,5 to 50 nM,"N#Cc1ccc(COc2cccc([C@H]3CCN(Cc4nc5ccc(C(=O)O)cc5n4Cc4cncs4)[C@H]4C[C@@H]34)n2)c(F)c1 (single isomer, unassigned) [Compound 14, 2-((5-(6-((4-Cyano-2-fluorobenzyl)oxy)pyridin-2-yl)-2-azabicyclo[4.1.0]heptan-2-yl)methyl)-1-(thiazol-5-ylmethyl)-1H-benzo[d]imidazole-6-carboxylic Acid]"
4,5 to 50 nM,"N#Cc1ccc(COc2cccc([C@@H]3CCN(Cc4nc5ccc(C(=O)O)cc5n4Cc4cncs4)[C@H]4C[C@@H]34)n2)c(F)c1 (single isomer, unassigned) [Compound 15, 2-((5-(6-((4-Cyano-2-fluorobenzyl)oxy)pyridin-2-yl)-2-azabicyclo[4.1.0]heptan-2-yl)methyl)-1-(thiazol-5-ylmethyl)-1H-benzo[d]imidazole-6-carboxylic Acid]"
